# According to ChEMBL document CHEMBL1134193, “Initial structure-activity relationship of a novel class of nonpeptidyl GnRH receptor antagonists: 2-arylindoles” (Bioorg Med Chem Lett, 2001):
# Target: T1, Gonadotropin-releasing hormone receptor (Rattus norvegicus, UniProt P30969)
# T1 sequence (P30969 whole entry): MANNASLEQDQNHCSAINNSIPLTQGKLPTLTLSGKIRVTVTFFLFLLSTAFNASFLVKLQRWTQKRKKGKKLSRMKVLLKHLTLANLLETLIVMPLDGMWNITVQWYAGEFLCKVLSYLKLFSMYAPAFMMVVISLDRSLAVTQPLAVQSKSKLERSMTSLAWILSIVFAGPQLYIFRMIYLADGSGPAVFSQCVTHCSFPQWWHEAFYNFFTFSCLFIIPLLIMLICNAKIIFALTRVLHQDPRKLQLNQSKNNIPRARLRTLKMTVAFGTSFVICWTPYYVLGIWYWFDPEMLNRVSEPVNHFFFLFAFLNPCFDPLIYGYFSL
# Experiment: Ability to displace [125I]- - radio-labeled buserelin from rat Gonadotropin-releasing hormone receptor
# Settings: not given
row,Compound,IC50 [nM]
1,COc1ccc(-c2[nH]c3ccccc3c2CCNCc2ccc(O)cc2)cc1OC,20000
2,COc1ccc(-c2[nH]c3ccccc3c2CCNCCCCc2ccc([N+](=O)[O-])cc2)cc1OC,5000
3,Cc1cc(C)cc(-c2[nH]c3ccccc3c2CCNCCCCCc2ccc(O)cc2)c1,200
4,Oc1ccc(CCCCNCCc2c(-c3cc(Cl)cc(Cl)c3)[nH]c3ccccc23)cc1,170
5,COc1ccc(-c2[nH]c3ccccc3c2CCNC[C@@H](O)COc2ccc(O)cc2)cc1OC,3000
6,Cc1ccc(-c2[nH]c3ccccc3c2CCNCCCCc2ccc(O)cc2)cc1,9000
7,Cc1cc(C)cc(-c2[nH]c3ccccc3c2CCNCCCc2ccc(O)cc2)c1,250
8,COc1ccc(-c2[nH]c3ccccc3c2CCNC(=O)CCCc2ccc(N)cc2)cc1OC,30000
9,COc1ccc(-c2[nH]c3ccccc3c2CCNCCCCCCc2ccc(O)cc2)cc1OC,10000
10,Oc1ccc(CCCCNCCc2c(-c3csc4ccccc34)[nH]c3ccccc23)cc1,300
11,COc1ccc(-c2[nH]c3ccccc3c2CCNC[C@H](O)CCc2ccc(O)cc2)cc1OC,2000
12,Cc1ccccc1-c1[nH]c2ccccc2c1CCNCCCCc1ccc(O)cc1,500
13,COc1ccc(-c2[nH]c3ccccc3c2CCNCCCCc2ccc(N)cc2)cc1OC,10000
14,COc1ccc(-c2[nH]c3ccccc3c2CCNCCCCc2ccc(O)cc2)cc1OC,2000
15,Oc1ccc(CCCCNCCc2c(-c3cc4ccccc4s3)[nH]c3ccccc23)cc1,2500
16,COc1ccc(-c2[nH]c3ccccc3c2CCNCCCCCc2ccc(O)cc2)cc1OC,2000
17,Cc1cccc(-c2[nH]c3ccccc3c2CCNCCCCc2ccc(O)cc2)c1C,900
18,CCc1cccc(-c2[nH]c3ccccc3c2CCNCCCCc2ccc(O)cc2)c1,900
19,COc1ccc(-c2[nH]c3ccccc3c2CCNC[C@H](O)COc2ccc(O)cc2)cc1OC,3000
20,Oc1ccc(CCCCNCCc2c(-c3ccc4ccccc4c3)[nH]c3ccccc23)cc1,2500

row,Compound,IC50 [nM]
1,COc1ccc(-c2[nH]c3ccccc3c2CCNC(=O)CCCc2ccc([N+](=O)[O-])cc2)cc1OC,> 30000
2,COc1cc(OC)cc(-c2[nH]c3ccccc3c2CCNCCCCc2ccc(O)cc2)c1,700
3,Cn1ccc2cc(-c3[nH]c4ccccc4c3CCNCCCCc3ccc(O)cc3)ccc21,2800
4,Cc1cccc(-c2[nH]c3ccccc3c2CCNCCCCc2ccc(O)cc2)c1,200
5,Oc1ccc(CCCCNCCc2c(-c3cccc4ccccc34)[nH]c3ccccc23)cc1,130
6,COc1ccc(-c2[nH]c3ccccc3c2CCNCCCc2ccc(O)cc2)cc1OC,6000
7,Cc1ccc(C)c(-c2[nH]c3ccccc3c2CCNCCCCc2ccc(O)cc2)c1,400
8,Oc1ccc(CCCCNCCc2c(-c3ccccc3)[nH]c3ccccc23)cc1,1300
9,Cc1cc(C)cc(-c2[nH]c3ccccc3c2CCNCCc2ccc(O)cc2)c1,200
10,Oc1ccc(CCCCNCCc2c(-c3cccc4cnccc34)[nH]c3ccccc23)cc1,1900
11,Cc1cc(C)cc(-c2[nH]c3ccccc3c2CCNCCCCc2ccc(O)cc2)c1,50
12,Oc1ccc(CCCCNCCc2c(-c3ccc(F)cc3)[nH]c3ccccc23)cc1,11000
13,Cc1cccc(C)c1-c1[nH]c2ccccc2c1CCNCCCCc1ccc(O)cc1,1700
14,COc1ccc(-c2[nH]c3ccccc3c2CCNC(=O)CCCc2ccc(O)cc2)cc1OC,> 30000
15,COc1cccc(-c2[nH]c3ccccc3c2CCNCCCCc2ccc(O)cc2)c1,600
16,Cc1cc(C)cc(-c2[nH]c3ccccc3c2CCNCc2ccc(O)cc2)c1,9000
17,COc1ccc(-c2[nH]c3ccccc3c2CCNCCCCc2ccc(OCc3ccccc3)cc2)cc1OC,30000
18,Oc1ccc(CCCCNCCc2c(-c3cc(C(F)(F)F)cc(C(F)(F)F)c3)[nH]c3ccccc23)cc1,1500
19,COc1ccc(-c2[nH]c3ccccc3c2CCNCCc2ccc(O)cc2)cc1OC,4000
20,Cc1cc(C)cc(-c2[nH]c3ccccc3c2CCNCCCCCCc2ccc(O)cc2)c1,600

# Target: T2, Gonadotropin-releasing hormone receptor (Rattus norvegicus) (UniProt P30969)
# T2 sequence (whole entry): T1 sequence (P30969 whole entry)
# Experiment: Percent inhibition of displacement of [125I]- - radio-labeled buserelin from rat Gonadotropin-releasing hormone receptor
# Settings: concentration not given here
row,Compound,inhibition [%]
1,COc1ccc(-c2[nH]c3ccccc3c2CCNC(=O)CCCc2ccc(OCc3ccccc3)cc2)cc1OC,0
